{
  "source": "patent US5104895A",
  "about": "“Platinum(II) complexes, their preparation and use as anti-tumor agents” (Boehringer Mannheim Italia S.p.A., priority 1988, dated 1992)",
  "key": {"tumours in patients": {"tested_on": "tumours in patients", "details": "human, in vivo; cited from earlier work"}, "[1]": {"details": "cited from earlier work"}, "L1210 resistant line": {"tested_on": "L1210 resistant line", "experiment": "in vivo murine L1210 leukaemia / cisplatin resistant", "from_the_text": "(§1) \"In vivo\" experiments including: a murine leukaemia and murine L1210 leukaemia / cisplatin resistant (i.p. drug administration day 1 after i.p. injection of 10^6 tumour cells day 0); b) advanced M 5076 ovarian carcinoma in female mice (i.m. injection of 5.10^5 cell day 0, drug administration q7d×3) are based on classical models that allow a preliminary evaluation of efficacy and toxicity of the novel agent in comparison with a well-stated reference drug. The evaluated parameters are toxic death, median survival time (T/C %) and long term survivals (60 days)."}, "murine L1210 leukaemia": {"tested_on": "murine L1210 leukaemia", "experiment": "in vivo murine L1210 leukaemia", "from_the_text": "as §1"}, "M5076 ovarian carcinoma": {"tested_on": "M5076 ovarian carcinoma", "experiment": "advanced M 5076 ovarian carcinoma in female mice", "format": "in vivo", "from_the_text": "as §1"}, "cervix epithelioma": {"tested_on": "cervix epithelioma", "experiment": "MTT assay, cervix epithelioid carcinoma", "format": "cell-based, human", "details": "in vitro", "from_the_text": "The \"in vitro\" testing procedure has been based on the \"MTT assay on human tumor cell lines\" (T. Mosmann, J Immunol. Meth., 65, 55, 1983). According to N.C.I screening program for new anticancer drugs, the evaluation of the anti-tumour activity has been performed against groups of cell lines each representing a major category of human malignancy. Human cell (for ex. cervix epithelioid carcinoma, melanoma, fibrosarcoma and vulvar leiomyosarcoma cultures have been adapted to grow in complete RPMI 1640 medium; the compounds were added to 24 hours cultures and incubated for 72 and 160 hours."}, "[2]": {"details": "cisplatin at 7 and 10 mg/kg, i.p. day 1"}},
  "data": [
    {"compound": "N.N.O=C([O-])C1(C(=O)[O-])CCC1.[Pt+2]", "note": "[carboplatin]", "values": [
      {"measurement": "activity against lung tumors (non-small cell), osteogenic sarcoma, Hodgkins lymphoma, melanoma and mammary tumors", "setting": "tumours in patients", "value": "a certain, even if limited, activity"},
      {"measurement": "nephrotoxicity compared with cis-platin", "setting": "[1]; human, in vivo", "value": "less nephrotoxic than cis-platin"}
    ]},
    {"compound": "N.N.[Cl][Pt][Cl]", "note": "[cisplatin, cis-diammino-dichloro-platinum, reference compound]", "values": [
      {"measurement": "median survival time (T/C %)", "setting": "L1210 resistant line", "value": 115, "unit": "%"},
      {"measurement": "long term survivals (60 days)", "setting": "murine L1210 leukaemia; [2]", "value": "1/10"},
      {"measurement": "median survival time (T/C %)", "setting": "murine L1210 leukaemia; [2]", "value": 162, "unit": "%"},
      {"measurement": "activity against head and neck squamous cell carcinoma and further listed tumors", "setting": "tumours in patients", "value": "a certain activity"},
      {"measurement": "activity against lung tumors (non-small cell), osteogenic sarcoma, Hodgkins lymphoma, melanoma and mammary tumors", "setting": "tumours in patients", "value": "a certain, even if limited, activity"},
      {"measurement": "antitumour activity in patients", "setting": "tumours in patients", "value": "particularly effective in the treatment of genito-urinary tumours, of neck and head tumours"},
      {"measurement": "body weight change", "setting": "M5076 ovarian carcinoma; equieffective dose levels", "value": "marked body weight decrease"},
      {"measurement": "side-effects", "setting": "[1]; following cisplatin use", "value": "important gastrointestinal and renal side-effects, haematologic and neurologic complications (ototoxicity)"}
    ]},
    {"compound": "NCCN.O=C([O-])C(CCOCCOCCO)C(=O)[O-].[Pt+2]", "note": "[reference compound, cis(1,2-diaminoethane)-(8-hydroxy 3,6-dioxaoctane-1-yl-malonate) platinum (II), reference compound]", "values": [
      {"measurement": "toxicity", "setting": "murine L1210 leukaemia; at the higher dose level", "value": "heavily toxic"}
    ]},
    {"compound": "(2R, 3R, 11R, 12R)-1,4-7,10,13,16-hexaoxacyclooctadecane-2,3,11,12-tetracarboxylate-bis- [compound B, (2R, 3R, 11R, 12R)-1,4-7,10,13,16-hexaoxacyclooctadecane-2,3,11,12-tetracarboxylate-bis-[cis(trans-d,l,-1,2)diamino-cyclohexane)-platinum(II)]]", "values": [
      {"measurement": "cross resistance with cisplatin", "setting": "L1210 resistant line", "value": "Lack of cross resistance with cisplatin"},
      {"measurement": "median survival time (T/C %)", "setting": "L1210 resistant line", "value": "over 160%"},
      {"measurement": "median survival time (T/C %)", "setting": "murine L1210 leukaemia; 20 mg/kg dose level, i.p. day 1", "value": 170, "unit": "%"},
      {"measurement": "long term survivor values", "setting": "murine L1210 leukaemia; 20 mg/kg dose level, 60 days", "value": 2},
      {"measurement": "median survival time (T/C %)", "setting": "murine L1210 leukaemia; 120 mg/kg", "value": 200, "unit": "%"},
      {"measurement": "toxic deaths", "setting": "murine L1210 leukaemia; 120 mg/kg", "value": "2/10"},
      {"measurement": "long term survivors", "setting": "murine L1210 leukaemia; 120 mg/kg, 60 days", "value": "2/10"},
      {"measurement": "DL100", "setting": "murine L1210 leukaemia; i.p.", "value": "over 200 mg/kg"},
      {"measurement": "tumour growth inhibition potency", "setting": "M5076 ovarian carcinoma; drug administration q7d×3", "value": "comparable with that of cisplatin"},
      {"measurement": "body weight change", "setting": "M5076 ovarian carcinoma; mouse, in vivo", "value": "normal body weight increase"}
    ]},
    {"compound": "cis[(1,1-diaminomethyl-cyclohexane)-3,3-(1,5,8,11,14,17-hexaoxacyclononadecane)cyclobutane]-1,1-dicarboxylate [compound D]", "values": [
      {"measurement": "cross resistance with cisplatin", "setting": "L1210 resistant line", "value": "Lack of cross resistance with cisplatin"},
      {"measurement": "median survival time (T/C %)", "setting": "L1210 resistant line", "value": "over 160%"},
      {"measurement": "antitumour activity compared with cisplatin", "setting": "cervix epithelioma", "value": "more active than cisplatin of about a log. order"}
    ]}
  ]
}
